{
  "source": "patent US20230373972A1",
  "about": "“PIPERAZINE DERIVATIVE, PREPARATION METHOD THEREFOR AND USE THEREOF” (Zhejiang Hisun Pharmaceutical Co., Ltd., priority 2020, published 2023)",
  "data": [
    {"system": "human plasma", "test": "In-vitro anticoagulation on human plasma (APTT kit, coagulation time)", "settings": "concentration of the compound when the coagulation time (APTT) was prolonged twice", "protocol": "The following method was used to determine the in-vitro anticoagulation of the compound of the present invention in the human plasma. In the method, an APTT kit of the MediRox company was used to test. The APTT kit was purchased from MediRox (article number MRX930), and the human plasma was prepared internally.\nThe preparation of the human plasma was briefly described as follows: human plasma was collected in a blood collection tube containing sodium citrate, and centrifuged at 3,000 rpm for 10 minutes at room temperature, and plasma was collected, and packaged separately and stored at −80° C.\nAn APTT test process was briefly described as follows: a test compound was dissolved in DMSO to prepare a 10 mM storage solution first, then the test compound was diluted with DMSO by a triple gradient, and a final concentration of the test compound in a reaction system ranged from 217 μM to 0.03 μM. 4 μL, of test compounds at different concentrations diluted with DMSO were added to a centrifuge tube containing 180 μL of plasma, and 4 μL of DMSO was added to a blank group, shaken and mixed evenly, and incubated at 37° C. for 5 minutes. Subsequently, an APTT reagent was placed in a reagent holder according to instrument requirements, the incubated plasma sample was placed in a detection position of a coagulation analyzer, and a coagulation time was determined and recorded (s). With a final concentration of the compound as an abscissa and Ratio (Ratio=TiT0, wherein T0 was a coagulation time of a blank control, and Ti was a coagulation time of a compound to be tested) as an ordinate, a coagulation dose-effect curve was drawn by Graph Pad Prisms, and a concentration of the compound when the coagulation time was prolonged twice was calculated, which was namely a CT2 value, as shown in Table 2.", "units": {"CT2": "µM"}, "values": [
      {"molecule": "[2H]C([2H])([2H])n1ccc(CC(C(=O)Nc2ccc3nn(C)cc3c2)N2CC(=O)N(c3cc(Cl)ccc3-n3cc(Cl)nn3)CC2=O)n1", "note": "(centres unmarked) [Example 133, 2-(4-(5-chloro-2-(4-chloro-1H-1,2,3-triazol-1-yl)phenyl)-2,5-dioxopiperazin-1-yl)-N-(2-methyl-2H-indazol-5-yl)-3-(1-(methyl-d3)-1H-pyrazol-3-yl)propanamide]", "CT2": 14.8},
      {"molecule": "O=C(Nc1ccc2ccnn2c1)C(Cc1ccccc1)N1CC(=O)N(c2cc(Cl)ccc2-n2cnnn2)CC1=O", "note": "(centres unmarked) [Example 22, 2-(4-(5-Chloro-2-(1H-tetrazol-1-yl)phenyl)-2,5-dioxopiperazin-1-yl)-3-phenyl-N-(pyrazolo[1.5-a]pyridin-6-yl)propanamide]", "CT2": 16.0},
      {"molecule": "Cn1cc2cc(NC(=O)C(CC3CCC3)N3CC(=O)N(c4cc(Cl)ccc4-n4cc(Cl)nn4)CC3=O)ccc2n1", "note": "(centres unmarked) [Example 116, 2-(4-(5-chloro-2-(4-chloro-1H-1,2,3-triazol-1-yl)phenyl)-2,5-dioxopiperazin-1-yl)-3-cyclobutyl-N-(2-methyl-2H-indazol-5-yl)propanamide]", "CT2": 14.0},
      {"molecule": "Cn1cc2cc(NC(=O)C(CCOC(C)(C)C)N3CC(=O)N(c4cc(Cl)ccc4-n4cc(Cl)nn4)CC3=O)ccc2n1", "note": "(centres unmarked) [Example 122, 4-(tert-butoxy)-2-(4-(5-chloro-2-(4-chloro-1H-1,2,3-triazol-1-yl)phenyl)-2,5-dioxopiperazin-1-yl)-N-(2-methyl-2H-indazol-5-yl)butanamide]", "CT2": 18.7},
      {"molecule": "Cn1cc2cc(NC(=O)C(Cc3cccnc3)N3CC(=O)N(c4cc(Cl)ccc4-n4cc(Cl)nn4)CC3=O)ccc2n1", "note": "(centres unmarked) [Example 43, 2-(4-(5-Chloro-2-(4-chloro-1H-1,2,3-triazol-1-yl)phenyl)-2,5-dioxopiperazin-1-yl)-N-(2-methyl-2H-indazol-5-yl)-3-(pyridin-3-yl)propanamide]", "CT2": 19.6},
      {"molecule": "Cn1cc2cc(NC(=O)C(Cc3ccn(C4CC4)n3)N3CC(=O)N(c4cc(Cl)ccc4-n4cc(Cl)nn4)CC3=O)ccc2n1", "note": "(centres unmarked) [Example 123, 2-(4-(5-chloro-2-(4-chloro-1H-1,2,3-triazol-1-yl)phenyl)-2,5-dioxopiperazin-1-yl)-3-(1-cyclopropyl-1H-pyrazol-3-yl)-N-(2-methyl-2H-indazol-5-yl)propanamide]", "CT2": 12.8},
      {"molecule": "COCCC(C(=O)Nc1ccc2nn(C)cc2c1)N1CC(=O)N(c2cc(Cl)ccc2-n2cnnn2)CC1=O", "note": "(centres unmarked) [Example 32, 2-(4-(5-Chloro-2-(1H-tetrazol-1-yl)phenyl)-2,5-dioxopiperazin-1-yl)-4-methoxy-N-(2-methyl-2H-indazol-5-yl)butanamide]", "CT2": 6.3},
      {"molecule": "Cn1cc2cc(NC(=O)C(Cc3ccn(C(F)F)n3)N3CC(=O)N(c4cc(Cl)ccc4-n4cc(Cl)nn4)CC3=O)ccc2n1", "note": "(centres unmarked) [Example 132, 2-(4-(5-chloro-2-(4-chloro-1H-1,2,3-triazol-1-yl)phenyl)-2,5-dioxopiperazin-1-yl)-3-(1-(difluoromethyl)-1H-pyrazol-3-yl)-N-(2-methyl-2H-indazol-5-yl)propanamide]", "CT2": 12.7},
      {"molecule": "NC(=O)c1ccc(NC(=O)C(Cc2ccc(F)cc2)N2CC(=O)N(c3cc(Cl)ccc3-n3cc(Cl)nn3)CC2=O)cc1F", "note": "(centres unmarked) [Example 135, 4-(2-(4-(5-chloro-2-(4-chloro-1H-1,2,3-triazol-1-yl)phenyl)-2,5-dioxopiperazin-1-yl)-3-(4-fluorophenyl)propanamido)-2-fluorobenzamide]", "CT2": 19.2},
      {"molecule": "N#Cc1ccc(NC(=O)C(Cc2ccccc2)N2CC(=O)N(c3cc(Cl)ccc3-n3cnnn3)CC2=O)cc1", "note": "(centres unmarked) [Example 16, 2-(4-(5-chloro-2-(1H-tetrazol-1-yl)phenyl)-2,5-dioxopiperazin-1-yl)-N-(4-cyanophenyl)-3-phenylpropanamide]", "CT2": 15.6},
      {"molecule": "Cn1cc2cc(NC(=O)C(CC3CCC3)N3CC(=O)N(c4cc(Cl)ccc4-n4cnnn4)CC3=O)ccc2n1", "note": "(centres unmarked) [Example 39, 2-(4-(5-Chloro-2-(1H-tetrazol-1-yl)phenyl)-2,5-dioxopiperazin-1-yl)-3-cyclobutyl-N-(2-methyl-2H-indazol-5-yl)propanamide]", "CT2": 12.7},
      {"molecule": "Cn1cc2cc(NC(=O)C(Cc3cccc(F)c3)N3CC(=O)N(c4cc(Cl)ccc4-n4cc(Cl)nn4)CC3=O)ccc2n1", "note": "(centres unmarked) [Example 46, 2-(4-(5-Chloro-2-(4-chloro-1H-1,2,3-triazol-1-yl)phenyl)-2,5-dioxopiperazin-1-yl)-3-(3-fluorophenyl)-N-(2-methyl-2H-indazol-5-yl)propanamide]", "CT2": 19.1},
      {"molecule": "Cn1cc2cc(NC(=O)C(Cc3ccncc3)N3CC(=O)N(c4cc(Cl)ccc4-n4cc(Cl)nn4)CC3=O)ccc2n1", "note": "(centres unmarked) [Example 105, 2-(4-(5-chloro-2-(4-chloro-1H-1,2,3-triazol-1-yl)phenyl)-2,5-dioxopiperazin-1-yl)-N-(2-methyl-2H-indazol-5-yl)-3-(pyridin-4-yl)propanamide]", "CT2": 10.1},
      {"molecule": "Cn1cc(CC(C(=O)Nc2ccc3nn(C)cc3c2)N2CC(=O)N(c3cc(Cl)ccc3-n3cc(Cl)nn3)CC2=O)cn1", "note": "(centres unmarked) [Example 131, 2-(4-(5-chloro-2-(4-chloro-1H-1,2,3-triazol-1-yl)phenyl)-2,5-dioxopiperazin-1-yl)-3-(1-methyl-1H-pyrazol-4-yl)-N-(2-methyl-2H-indazol-5-yl)propanamide]", "CT2": 11.5},
      {"molecule": "CNC(=O)c1ccc(NC(=O)C(Cc2ccccc2)N2CC(=O)N(c3cc(Cl)ccc3-n3cc(Cl)nn3)CC2=O)cc1F", "note": "(centres unmarked) [Example 42, 4-(2-(4-(5-Chloro-2-(4-chloro-1H-1,2,3-triazol-1-yl)phenyl)-2,5-dioxopiperazin-1-yl)-3-phenylpropanamido)-2-fluoro-N-methylbenzamide]", "CT2": 16.3},
      {"molecule": "CNC(=O)c1ccc(NC(=O)C(Cc2ccc(F)cc2)N2CC(=O)N(c3cc(Cl)ccc3-n3cc(Cl)nn3)CC2=O)cc1F", "note": "(centres unmarked) [Example 134, 4-(2-(4-(5-chloro-2-(4-chloro-1H-1,2,3-triazol-1-yl)phenyl)-2,5-dioxopiperazin-1-yl)-3-(4-fluorophenyl)propanamido)-2-fluoro-N-methylbenzamide]", "CT2": 19.4},
      {"molecule": "CNC(=O)c1ccc(NC(=O)C(Cc2ccccc2)N2CC(=O)N(c3cc(Cl)ccc3-n3cnnn3)CC2=O)cn1", "note": "(centres unmarked) [Example 29, 5-(2-(4-(5-Chloro-2-(1H-tetrazol-1-yl)phenyl)-2,5-dioxopiperazin-1-yl)-3-phenylpropanamido)-N-methylpicolinamide]", "CT2": 6.7}
    ]}
  ]
}
